Molecules are shown by their SMILES.

For this assay, the target named is T1, human PRMT1 (Homo sapiens, UniProt Q99873).
T1 construct: GST-tagged PRMT1; made in house; host or cells: High Five insect cells (baculovirus, pFastBacI)
T1 sequence (Q99873 with tags, fused parts or gaps): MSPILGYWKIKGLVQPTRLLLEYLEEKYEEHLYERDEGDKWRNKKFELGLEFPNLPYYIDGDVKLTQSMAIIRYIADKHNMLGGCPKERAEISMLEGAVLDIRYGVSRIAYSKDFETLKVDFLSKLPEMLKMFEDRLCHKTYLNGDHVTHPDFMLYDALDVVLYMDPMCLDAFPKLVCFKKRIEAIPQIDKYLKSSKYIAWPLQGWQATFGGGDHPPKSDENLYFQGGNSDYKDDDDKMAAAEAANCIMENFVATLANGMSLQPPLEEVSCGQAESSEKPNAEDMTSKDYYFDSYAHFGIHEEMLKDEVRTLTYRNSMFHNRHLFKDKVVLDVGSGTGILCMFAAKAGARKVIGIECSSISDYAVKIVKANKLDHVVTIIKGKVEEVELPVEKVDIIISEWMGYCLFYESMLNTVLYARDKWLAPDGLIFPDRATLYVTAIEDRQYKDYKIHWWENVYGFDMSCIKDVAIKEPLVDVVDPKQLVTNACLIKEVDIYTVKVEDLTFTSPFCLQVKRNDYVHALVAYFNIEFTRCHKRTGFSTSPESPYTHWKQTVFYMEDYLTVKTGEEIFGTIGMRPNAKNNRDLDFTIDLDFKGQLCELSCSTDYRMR
Briefly: PRMT1 biochemical assay (3H-SAM Flashplate, peptide substrate). The settings on record: read-out: PRMT1_ IC50. The gist of the method:
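FLAG-tagged full-length human PRMT1 (0.5 nM, GST-tagged, insect-cell expressed) preincubated 30 min at RT with compound, then biotinylated histone H4 36-50 peptide (20 nM) plus 200 nM 3H-SAM and 1.5 uM SAM in Bicine pH 7.6, 2% DMSO. 3H-methylated peptide captured on streptavidin Flashplate; IC50 from 3/4-parameter fit.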
As to `Cc1nn(C(C)C)c2nc(-c3cccc(CN(C)CCN)c3)cc(N3CCOCC3)c12` [Compound 22, N1-(3-(1-isopropyl-3-methyl-4-morpholino-1H-pyrazolo[3,4-b]pyridin-6-yl)benzyl)-N1-methylethane-1,2-diamine], the concentration for half-maximal inhibition (IC50) (commonly the point on the concentration scale where inhibition reaches its midpoint) is 95.2 nM.
For `CNCCN(C)Cc1cccc(-c2ccc3ncn(C4CCOCC4)c3c2)c1` [Compound 30] the value was 118 nM; for `NCCNCc1ccc(-c2cnc3c(c2)OCC(=O)N3)cc1` [Compound 358], 78.5 nM.
The figure for `COc1cccc(CNC(=O)c2cncc(-c3ccc(CNCCN)cc3)c2)c1` [Compound 356] is 755 nM; for `CNCCN(C)Cc1cccc(-c2cc(Oc3ccccc3)c3cnn(C(C)C)c3n2)c1` [Compound 45] it is 194 nM; for `CC(C)n1ncc2c(C(=O)N3CCc4ccccc4C3)cc(-c3cccc(CN(C)CCN)c3)nc21` [Compound 23] it is 97.1 nM.
For `CNCCN(C)Cc1cccc(-c2cc(NC(=O)NC3CCOCC3)c3cnn(C(C)C)c3n2)c1` [Compound 133] the value was 866 nM; for `CN(CCN)Cc1cccc(-c2cc(C(=O)NC3CCOCC3)c3cnn(C4CC4)c3n2)c1` [Compound 142], 1110 nM; for `CNCCN(C)Cc1cccc(-c2ccc3c(c2)ncn3CCOC)c1` [Compound 34], 145 nM.
With `COc1ccc(Cn2cnc3ccc(-c4ccc(CN(C)CCN)cc4)cc32)cc1` [Compound 16], the IC50 was determined as 69.6 nM.
For `CNCCN(C)Cc1cccc(-c2cc(C(=O)N[C@@H](C)c3ccccc3)c3cn[nH]c3n2)c1` [Compound 12] the value was 59.4 nM.

The values are drawn from patent US20170280720A1, “ARGININE […] INHIBITORS AND USES THEREOF” (EPIZYME, INC., priority 2014, published 2017).
